Assay results taken from the supplement of paper PMC4862054.

Assays:
BT-474 [1] = details: 72 h
In short: (§1)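 Per-plate normalisation used 0.1 % DMSO and a positive kill control. Breast cancer cell lines (20 µl suspension) were seeded into 384-well plates containing compound at 5 concentrations in 10-fold steps across a compound-specific 10,000-fold range, incubated for 72 h, and read first for CellTox Green fluorescence (485/520 nm), then for CellTiter-Glo luminescence. EC50 was fitted from the dose-response curves and censored at the top concentration.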

BT-549 [2] = details: 72 h
In short: as §1

CAL-148 [3] = details: 72 h
In short: as §1

CAL-51 [4] = details: 72 h
In short: as §1

CAL-85-1 [5] = details: 72 h
In short: as §1

DU-4475 [6] = details: 72 h
In short: as §1

HCC1143 [7] = details: 72 h
In short: as §1

HCC1937 [8] = details: 72 h
In short: as §1

HDQ-P1 [9] = details: 72 h
In short: as §1

Hs578T [10] = details: 72 h
In short: as §1

MCF-10A = details: 72 h
In short: as §1

MDA-MB-231 [11] = details: 72 h
In short: as §1

MDA-MB-436 [12] = details: 72 h
In short: as §1

MDA-MB-453 [13] = details: 72 h
In short: as §1

MFM-223 [14] = details: 72 h
In short: as §1

SK-BR-3 [15] = details: 72 h
In short: as §1

CAL-85-1 [16] = details: 72 h; remark: listed apart in the source
In short: (§2)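 For viability, cells received 2.5 µl CellTiter-Blue for 2 h at 37 °C and fluorescence was read at 560/590 nm. Before this, breast cancer cell lines in 20 µl suspension had been incubated for 72 h on 384-well plates pre-loaded with compound dissolved in 5 µl medium. EC50 was obtained from a percent-inhibition dose-response fit censored at the highest concentration, after normalisation of each plate to vehicle and a positive kill control; rows with a zero drug sensitivity score were discarded.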

DU-4475 [17] = details: 72 h; remark: listed apart in the source
In short: as §2

HDQ-P1 [18] = details: 72 h; remark: listed apart in the source
In short: as §2

MDA-MB-453 [19] = details: 72 h; remark: listed apart in the source
In short: as §2

BT-474 [20] = details: 72 h; remark: listed apart in the source
In short: as §2

BT-549 [21] = details: 72 h; remark: listed apart in the source
In short: as §2

CAL-120 = details: 72 h
In short: as §2

HCC1143 [22] = details: 72 h; remark: listed apart in the source
In short: as §2

HCC1599 [23] = details: 72 h
In short: as §2

HCC1937 [24] = details: 72 h; remark: listed apart in the source
In short: as §2

Hs578T [25] = details: 72 h; remark: listed apart in the source
In short: as §2

MDA-MB-231 [26] = details: 72 h; remark: listed apart in the source
In short: as §2

MDA-MB-436 [27] = details: 72 h; remark: listed apart in the source
In short: as §2

MDA-MB-468 [28] = details: 72 h
In short: as §2

MFM-223 [29] = details: 72 h; remark: listed apart in the source
In short: as §2

SK-BR-3 [30] = details: 72 h; remark: listed apart in the source
In short: as §2

CAL-85-1 [31] = details: 72 h; remark: listed apart in the source
Method: (§3)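 Drug sensitivity and resistance testing (DSRT) of breast cancer cell lines in 384-well plates, 5 concentrations in 10-fold dilutions over a compound-specific 10,000-fold range. After 72 h, cytotoxicity was read by CellTox Green fluorescence and viability by CellTiter-Glo luminescence (multiplexed), normalised to DMSO and benzethonium chloride controls. EC50 is the inflection point of the fitted dose-response curve (bottom asymptote free, so it can be relative for partial curves) and is censored at the highest tested concentration. Rows with DSS 0 (no meaningful response) were excluded.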

HCC1937 [32] = assay: drug sensitivity score (DSS), CellTox Green (DSS (AUC-based score)); higher = stronger drug effect (viability inhibition or cytotoxicity); extreme values may be limits of the assay; details: incubation time: 72 h
In short: (§4)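 Normalisation on every plate relied on 0.1 % DMSO and a positive kill control. The plates, 384-well format, held compound at 5 concentrations 10-fold apart across a compound-specific 10,000-fold range, and breast cancer cell lines in 20 µl suspension were incubated on them for 72 h before CellTox Green and then CellTiter-Glo readings. The drug sensitivity score derives from the area under the fitted dose-response curve.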

Hs578T [33] = assay: as above; details: incubation time: 72 h
In short: as §4

MDA-MB-231 [34] = assay: as above; details: incubation time: 72 h
In short: as §4

HCC1599 [35] = details: 72 h; remark: listed apart in the source
In short: as §1

CAL-148 [36] = details: 72 h; remark: listed apart in the source
Method: as §3

CAL-51 [37] = details: 72 h; remark: listed apart in the source
Method: as §3

MDA-MB-468 [38] = details: 72 h; remark: listed apart in the source
Method: as §3

EC50, CellTiter-Glo (BT-474 [1]) [nM] | EC50, CellTiter-Glo (BT-549 [2]) [nM] | EC50, CellTiter-Glo (HCC1143 [7]) [nM] | EC50, CellTiter-Glo (HCC1937 [8]) [µM] | EC50, CellTiter-Glo (MDA-MB-231 [11]) [µM] | EC50, CellTiter-Glo (MDA-MB-436 [12]) [µM] | EC50, CellTiter-Glo (MDA-MB-453 [13]) [nM] | EC50, CellTiter-Glo (SK-BR-3 [15]) [nM] | EC50, CellTiter-Blue viability (MDA-MB-453 [19]) [nM] | EC50, CellTiter-Blue viability (BT-474 [20]) [nM] | EC50, CellTiter-Blue viability (BT-549 [21]) [nM] | EC50, CellTiter-Blue viability (HCC1143 [22]) [nM] | EC50, CellTiter-Blue viability (HCC1599 [23]) [nM] | EC50, CellTiter-Blue viability (HCC1937 [24]) [nM] | EC50, CellTiter-Blue viability (MDA-MB-231 [26]) [nM] | EC50, CellTiter-Blue viability (MDA-MB-436 [27]) [nM] | EC50, CellTiter-Blue viability (MDA-MB-468 [28]) [nM] | EC50, CellTiter-Blue viability (SK-BR-3 [30]) [nM] | EC50, CellTiter-Glo (HCC1599 [35]) [nM] | Compound | EC50, CellTiter-Glo (CAL-148 [3]) [µM] | EC50, CellTiter-Glo (CAL-51 [4]) [nM] | EC50, CellTiter-Glo (CAL-85-1 [5]) [nM] | EC50, CellTiter-Glo (DU-4475 [6]) [nM] | EC50, CellTiter-Glo (HDQ-P1 [9]) [nM] | EC50, CellTiter-Glo (Hs578T [10]) [µM] | EC50, CellTiter-Glo (MCF-10A) [nM] | EC50, CellTiter-Glo (MFM-223 [14]) [µM] | EC50, CellTiter-Blue viability (CAL-85-1 [16]) [nM] | EC50, CellTiter-Blue viability (DU-4475 [17]) [nM] | EC50, CellTiter-Blue viability (HDQ-P1 [18]) [nM] | EC50, CellTiter-Blue viability (CAL-120) [nM] | EC50, CellTiter-Blue viability (Hs578T [25]) [nM] | EC50, CellTiter-Blue viability (MFM-223 [29]) [nM] | EC50, CellTox Green (CAL-85-1 [31]) [nM] | drug sensitivity score (HCC1937 [32]) | drug sensitivity score (Hs578T [33]) | drug sensitivity score (MDA-MB-231 [34]) | EC50, CellTox Green (CAL-148 [36]) [nM] | EC50, CellTox Green (CAL-51 [37]) [nM] | EC50, CellTox Green (MDA-MB-468 [38]) [nM]
2920 | 2590 | 1880 | 8.71 | 8.21 | 8.29 | 2920 | 594 | 460 | 740 | 2580 | 1150 | 1210 | 771 | 1670 | 370 | 1960 | 73.4 |  | COc1cccc2cc(-c3nc([C@H]4CC[C@H](C(=O)O)CC4)n4ncnc(N)c34)[nH]c12 [OSI-027] | 7.16 | 2220 | 3800 | 1480 | 938 | 6.72 | 4810 | 3.17 | 1180 | 4630 | 255 | 1800 | 1280 | 275 | > 10000 | 0 | 0 | 0 |  |  | 
167 | 154 | 942 |  | 0.311 | 0.449 | 607 | 263 | 409 | 522 | 196 | 132 | 83.5 | 55.1 | 187 | 190 | 150 | 49.4 | 597 | COc1cccc2c1C(=O)c1c(O)c3c(c(O)c1C2=O)C[C@@](O)(C(=O)CO)C[C@@H]3O[C@H]1C[C@H](N)[C@H](O)[C@H](C)O1 [Doxorubicin] | 0.187 | 41.5 | 547 | 177 | 465 | 0.463 | 856 |  | 279 | 71.8 | 259 | 96.4 | 147 | 558 | 440 | 0 | 0 | 0 | 92.4 | 68 | 100
